Common to all, as to experiment: biochemical
Common to all, as to conditions: read-out: CPT-1-70-1 (1μM) % control

In test [1] the target is ABL1(E255K)-phosphorylated (Homo sapiens, UniProt P00519, E255K).
Another test addresses PFCDPK1(P.falciparum) (Plasmodium falciparum, UniProt P62344).
The next test deals with PFPK5(P.falciparum) (Plasmodium falciparum, UniProt P61075).

These results are taken from article doi:10.1101/2020.06.11.145995v1 (biorxiv, 2020).

PFPK5(P.falciparum), sequence (P61075 whole entry): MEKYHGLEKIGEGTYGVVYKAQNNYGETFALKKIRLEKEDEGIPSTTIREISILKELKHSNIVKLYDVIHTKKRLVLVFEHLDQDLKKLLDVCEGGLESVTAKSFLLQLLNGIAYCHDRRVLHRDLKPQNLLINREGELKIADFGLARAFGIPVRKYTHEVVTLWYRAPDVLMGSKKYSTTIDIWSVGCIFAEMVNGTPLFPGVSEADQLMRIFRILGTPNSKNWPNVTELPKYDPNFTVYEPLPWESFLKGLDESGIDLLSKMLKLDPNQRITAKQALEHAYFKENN
ABL1(E255K)-phosphorylated, sequence (P00519 whole entry E255K): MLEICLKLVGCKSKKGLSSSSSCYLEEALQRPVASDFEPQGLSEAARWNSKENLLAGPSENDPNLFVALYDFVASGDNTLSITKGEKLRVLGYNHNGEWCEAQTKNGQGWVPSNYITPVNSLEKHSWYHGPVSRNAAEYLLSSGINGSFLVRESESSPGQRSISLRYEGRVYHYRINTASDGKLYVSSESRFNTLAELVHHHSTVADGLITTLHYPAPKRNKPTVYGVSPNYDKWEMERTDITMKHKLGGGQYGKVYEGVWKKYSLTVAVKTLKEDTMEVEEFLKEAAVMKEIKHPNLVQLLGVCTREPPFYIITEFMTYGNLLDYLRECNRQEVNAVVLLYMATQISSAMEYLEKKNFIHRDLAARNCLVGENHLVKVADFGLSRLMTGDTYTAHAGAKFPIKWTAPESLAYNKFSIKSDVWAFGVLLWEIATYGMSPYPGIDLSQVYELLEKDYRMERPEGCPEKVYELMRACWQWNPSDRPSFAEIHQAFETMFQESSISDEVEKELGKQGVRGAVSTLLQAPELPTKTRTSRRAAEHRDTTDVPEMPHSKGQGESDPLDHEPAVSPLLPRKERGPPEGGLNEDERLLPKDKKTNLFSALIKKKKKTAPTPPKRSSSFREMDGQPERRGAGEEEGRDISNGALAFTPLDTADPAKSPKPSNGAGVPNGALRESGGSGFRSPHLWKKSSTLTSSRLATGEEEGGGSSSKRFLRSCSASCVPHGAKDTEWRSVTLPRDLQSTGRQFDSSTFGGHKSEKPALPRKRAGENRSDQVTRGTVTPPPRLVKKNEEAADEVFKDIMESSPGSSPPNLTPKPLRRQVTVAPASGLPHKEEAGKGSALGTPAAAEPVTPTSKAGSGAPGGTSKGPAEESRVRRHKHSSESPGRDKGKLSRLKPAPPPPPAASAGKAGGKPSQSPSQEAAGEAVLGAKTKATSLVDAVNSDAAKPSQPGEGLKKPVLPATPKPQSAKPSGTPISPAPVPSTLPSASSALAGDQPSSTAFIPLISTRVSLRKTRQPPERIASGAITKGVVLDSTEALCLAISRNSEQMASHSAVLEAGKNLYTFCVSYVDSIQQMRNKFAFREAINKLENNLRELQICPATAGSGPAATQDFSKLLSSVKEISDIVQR
PFCDPK1(P.falciparum), sequence (P62344 whole entry): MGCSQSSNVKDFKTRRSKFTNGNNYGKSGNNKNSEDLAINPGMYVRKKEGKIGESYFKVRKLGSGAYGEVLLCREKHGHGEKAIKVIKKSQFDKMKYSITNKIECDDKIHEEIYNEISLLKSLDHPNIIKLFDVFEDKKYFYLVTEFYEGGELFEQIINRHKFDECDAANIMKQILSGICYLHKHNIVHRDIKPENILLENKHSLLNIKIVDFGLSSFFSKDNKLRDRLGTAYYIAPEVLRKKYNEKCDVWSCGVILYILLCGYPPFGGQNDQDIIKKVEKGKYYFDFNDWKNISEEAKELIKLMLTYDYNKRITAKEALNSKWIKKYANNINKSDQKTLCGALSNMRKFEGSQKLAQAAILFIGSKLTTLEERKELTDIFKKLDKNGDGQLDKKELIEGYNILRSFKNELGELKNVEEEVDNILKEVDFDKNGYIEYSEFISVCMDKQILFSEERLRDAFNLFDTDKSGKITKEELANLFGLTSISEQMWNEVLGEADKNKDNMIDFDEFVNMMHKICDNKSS

On to `CN1CCN(c2ccc(Nc3nc(Oc4ccc(NC(=O)CCl)cc4)c4cc[nH]c4n3)cc2)CC1` [CPT1-70-1], for which the results for the remaining activity at 1 µM (in test [1]; at PFCDPK1(P.falciparum); on PFPK5(P.falciparum)) were 90%, 100% and 100%, respectively.
